This note sets out measurements from the NIST ThermoML archive (doi:10.1016/j.jct.2018.09.023).

Numbers after ± are expanded uncertainties.

A short description of this data set: activity coefficient (dimensionless); of the first substance listed, at infinite dilution; xn = mol fraction of the nth substance listed. The settings on record: 101.33 kPa, Liquid, Chromatography, x1 = 0.

In the case of `CCCCCO` [pentan-1-ol] + CCC[n+]1ccn(C)c1.[Br-], the activity coefficient (323.15 K) is 0.692 ± 0.072; the activity coefficient (333.15 K) turned out to be 0.651 ± 0.069; the activity coefficient (343.15 K) is 0.619 ± 0.066; the activity coefficient (353.15 K) worked out at 0.592 ± 0.063; the activity coefficient (363.15 K) came out at 0.575 ± 0.062.

As to `C=Cc1ccccc1` [styrene] + CCC[n+]1ccn(C)c1.[Br-], the activity coefficient amounted to 1.83 ± 0.19 (323.15 K); 1.92 ± 0.2 (333.15 K); 2 ± 0.21 (343.15 K); 2.08 ± 0.22 (353.15 K); 2.17 ± 0.23 (363.15 K).

As to `c1ccccc1` [benzene] + CCC[n+]1ccn(C)c1.[Br-], the activity coefficient (323.15 K) came to 1.7 ± 0.18; the activity coefficient (333.15 K) came to 1.79 ± 0.19; the activity coefficient (343.15 K) turned out to be 1.89 ± 0.2; the activity coefficient (353.15 K) came to 2 ± 0.21; the activity coefficient (363.15 K) came out at 2.11 ± 0.22.

As for `CC(C)=O` [acetone] + CCC[n+]1ccn(C)c1.[Br-], the activity coefficient runs as follows: (323.15 K) 1.06 ± 0.11; (333.15 K) 1.14 ± 0.12; (343.15 K) 1.21 ± 0.12; (353.15 K) 1.29 ± 0.13; (363.15 K) 1.37 ± 0.14.

In the case of `C1CCOC1` [tetrahydrofuran] + CCC[n+]1ccn(C)c1.[Br-], the activity coefficient by setting is: (323.15 K) 2.11 ± 0.22; (333.15 K) 2.19 ± 0.23; (343.15 K) 2.28 ± 0.24; (353.15 K) 2.37 ± 0.25; (363.15 K) 2.47 ± 0.26.

`CC#N` [acetonitrile] + CCC[n+]1ccn(C)c1.[Br-]: the activity coefficient is, setting by setting: (323.15 K) 0.37 ± 0.04; (333.15 K) 0.39 ± 0.05; (343.15 K) 0.41 ± 0.05; (353.15 K) 0.44 ± 0.05; (363.15 K) 0.48 ± 0.05.

Turning to `CCCCCCCCC` [nonane] + CCC[n+]1ccn(C)c1.[Br-], the activity coefficient (323.15 K) was 119 ± 13; the activity coefficient (333.15 K) is 115 ± 12; the activity coefficient (343.15 K) is 110 ± 12; the activity coefficient (353.15 K) came to 106 ± 11; the activity coefficient (363.15 K) came to 103 ± 11.

In the case of `CC(C)O` [propan-2-ol] + CCC[n+]1ccn(C)c1.[Br-], the activity coefficient runs as follows: (323.15 K) 0.373 ± 0.044; (333.15 K) 0.359 ± 0.043; (343.15 K) 0.344 ± 0.042; (353.15 K) 0.334 ± 0.042; (363.15 K) 0.326 ± 0.041.

Consider `CCc1ccccc1` [ethylbenzene] + CCC[n+]1ccn(C)c1.[Br-], for which the activity coefficient by setting is: (323.15 K) 5.48 ± 0.58; (333.15 K) 5.67 ± 0.6; (343.15 K) 5.84 ± 0.61; (353.15 K) 6.01 ± 0.63; (363.15 K) 6.19 ± 0.65.

In the case of `CC1CCCCC1` [methylcyclohexane] + CCC[n+]1ccn(C)c1.[Br-], the activity coefficient turned out to be 82.3 ± 8.7 (323.15 K); 79.9 ± 8.4 (333.15 K); 77.5 ± 8.2 (343.15 K); 75.2 ± 7.9 (353.15 K); 73.2 ± 7.7 (363.15 K).

In the case of `CCC(C)O` (stereo not given) [butan-2-ol] + CCC[n+]1ccn(C)c1.[Br-], the activity coefficient turned out to be 0.52 ± 0.057 (323.15 K); 0.5 ± 0.055 (333.15 K); 0.485 ± 0.054 (343.15 K); 0.471 ± 0.053 (353.15 K); 0.462 ± 0.052 (363.15 K).

Turning to `ClC(Cl)Cl` [trichloromethane] + CCC[n+]1ccn(C)c1.[Br-], the activity coefficient was determined as 0.13 ± 0.03 (323.15 K); 0.15 ± 0.03 (333.15 K); 0.16 ± 0.03 (343.15 K); 0.18 ± 0.03 (353.15 K); 0.2 ± 0.03 (363.15 K).

`Cc1ccc(C)cc1` [1,4-dimethylbenzene] + CCC[n+]1ccn(C)c1.[Br-]: the activity coefficient was determined as 5.65 ± 0.59 (323.15 K); 5.8 ± 0.61 (333.15 K); 5.95 ± 0.63 (343.15 K); 6.11 ± 0.64 (353.15 K); 6.3 ± 0.66 (363.15 K).

As for `C1COCCO1` [1,4-dioxane] + CCC[n+]1ccn(C)c1.[Br-], the activity coefficient was found to be 1.01 ± 0.1 (323.15 K); 1.05 ± 0.11 (333.15 K); 1.11 ± 0.11 (343.15 K); 1.17 ± 0.12 (353.15 K); 1.23 ± 0.13 (363.15 K).

For the compound `CO` [methanol] + CCC[n+]1ccn(C)c1.[Br-], the activity coefficient runs as follows: (323.15 K) 0.112 ± 0.03; (333.15 K) 0.108 ± 0.03; (343.15 K) 0.106 ± 0.03; (353.15 K) 0.103 ± 0.03; (363.15 K) 0.102 ± 0.03.

As for `CC(C)CCO` [3-methylbutan-1-ol] + CCC[n+]1ccn(C)c1.[Br-], the activity coefficient was 0.62 ± 0.066 (323.15 K); 0.587 ± 0.063 (333.15 K); 0.564 ± 0.061 (343.15 K); 0.548 ± 0.059 (353.15 K); 0.531 ± 0.058 (363.15 K).

For `CCCCCC` [hexane] + CCC[n+]1ccn(C)c1.[Br-], the activity coefficient by setting is: (323.15 K) 102 ± 11; (333.15 K) 98.9 ± 10; (343.15 K) 95.6 ± 10; (353.15 K) 92.5 ± 9.7; (363.15 K) 89.9 ± 9.5.

Turning to `Cc1cccc(C)c1` [1,3-dimethylbenzene] + CCC[n+]1ccn(C)c1.[Br-], the activity coefficient (323.15 K) worked out at 5.91 ± 0.62; the activity coefficient (333.15 K) amounted to 6.04 ± 0.63; the activity coefficient (343.15 K) came to 6.18 ± 0.65; the activity coefficient (353.15 K) was found to be 6.33 ± 0.67; the activity coefficient (363.15 K) turned out to be 6.47 ± 0.68.

On to `ClCCl` [dichloromethane] + CCC[n+]1ccn(C)c1.[Br-], for which the activity coefficient runs as follows: (323.15 K) 0.27 ± 0.04; (333.15 K) 0.29 ± 0.04; (343.15 K) 0.31 ± 0.04; (353.15 K) 0.34 ± 0.04; (363.15 K) 0.38 ± 0.05.

`CCCCO` [butan-1-ol] + CCC[n+]1ccn(C)c1.[Br-]: the activity coefficient is 0.438 ± 0.05 (323.15 K); 0.417 ± 0.048 (333.15 K); 0.402 ± 0.047 (343.15 K); 0.388 ± 0.046 (353.15 K); 0.379 ± 0.045 (363.15 K).

Turning to `CCOC(C)=O` [ethyl acetate] + CCC[n+]1ccn(C)c1.[Br-], the activity coefficient (323.15 K) was 3.68 ± 0.39; the activity coefficient (333.15 K) stood at 3.86 ± 0.41; the activity coefficient (343.15 K) stood at 4.07 ± 0.43; the activity coefficient (353.15 K) was 4.27 ± 0.45; the activity coefficient (363.15 K) was 4.46 ± 0.47.

With `CC(C)CO` [2-methyl-1-propanol] + CCC[n+]1ccn(C)c1.[Br-], the activity coefficient reads like this: (323.15 K) 0.426 ± 0.049; (333.15 K) 0.406 ± 0.047; (343.15 K) 0.39 ± 0.046; (353.15 K) 0.378 ± 0.045; (363.15 K) 0.368 ± 0.044.

Turning to `CC(C)CC(C)(C)C` [2,2,4-trimethylpentane] + CCC[n+]1ccn(C)c1.[Br-], the activity coefficient runs as follows: (323.15 K) 115 ± 12; (333.15 K) 111 ± 12; (343.15 K) 108 ± 11; (353.15 K) 104 ± 11; (363.15 K) 101 ± 11.

On to `CCCO` [propan-1-ol] + CCC[n+]1ccn(C)c1.[Br-], for which the activity coefficient is, setting by setting: (323.15 K) 0.279 ± 0.038; (333.15 K) 0.268 ± 0.037; (343.15 K) 0.258 ± 0.036; (353.15 K) 0.25 ± 0.036; (363.15 K) 0.244 ± 0.035.

Regarding `CCCCCCC` [heptane] + CCC[n+]1ccn(C)c1.[Br-], the activity coefficient by setting is: (323.15 K) 106 ± 11; (333.15 K) 102 ± 11; (343.15 K) 98.5 ± 10; (353.15 K) 95.4 ± 10; (363.15 K) 92.5 ± 9.7.

For `Cc1ccccc1C` [1,2-dimethylbenzene] + CCC[n+]1ccn(C)c1.[Br-], the activity coefficient came out at 4.19 ± 0.44 (323.15 K); 4.3 ± 0.45 (333.15 K); 4.49 ± 0.47 (343.15 K); 4.71 ± 0.49 (353.15 K); 4.97 ± 0.52 (363.15 K).

As for `ClC(Cl)(Cl)Cl` [tetrachloromethane] + CCC[n+]1ccn(C)c1.[Br-], the activity coefficient (323.15 K) was 0.78 ± 0.08; the activity coefficient (333.15 K) was determined as 0.86 ± 0.09; the activity coefficient (343.15 K) was found to be 0.96 ± 0.1; the activity coefficient (353.15 K) worked out at 1.07 ± 0.11; the activity coefficient (363.15 K) was found to be 1.17 ± 0.12.

With `Cc1ccccc1` [toluene] + CCC[n+]1ccn(C)c1.[Br-], the activity coefficient is, setting by setting: (323.15 K) 2.95 ± 0.31; (333.15 K) 3.11 ± 0.33; (343.15 K) 3.33 ± 0.35; (353.15 K) 3.5 ± 0.37; (363.15 K) 3.72 ± 0.39.

As for `CCCCCCCCCC` [decane] + CCC[n+]1ccn(C)c1.[Br-], the activity coefficient (323.15 K) turned out to be 130 ± 14; the activity coefficient (333.15 K) was found to be 124 ± 13; the activity coefficient (343.15 K) was found to be 118 ± 12; the activity coefficient (353.15 K) was determined as 112 ± 12; the activity coefficient (363.15 K) worked out at 108 ± 11.

Take `CCCCCCCC` [octane] + CCC[n+]1ccn(C)c1.[Br-]: the activity coefficient worked out at 111 ± 12 (323.15 K); 107 ± 11 (333.15 K); 104 ± 11 (343.15 K); 100 ± 11 (353.15 K); 97.7 ± 10 (363.15 K).

On to `CCO` [ethanol] + CCC[n+]1ccn(C)c1.[Br-], for which the activity coefficient amounted to 0.208 ± 0.033 (323.15 K); 0.197 ± 0.033 (333.15 K); 0.19 ± 0.032 (343.15 K); 0.184 ± 0.032 (353.15 K); 0.18 ± 0.032 (363.15 K).

Regarding `C1CCCCC1` [cyclohexane] + CCC[n+]1ccn(C)c1.[Br-], the activity coefficient by setting is: (323.15 K) 66.2 ± 7; (333.15 K) 64.5 ± 6.8; (343.15 K) 62.9 ± 6.6; (353.15 K) 61.6 ± 6.5; (363.15 K) 60.4 ± 6.4.

Turning to `C1=CCCCC1` [cyclohexene] + CCC[n+]1ccn(C)c1.[Br-], the activity coefficient reads like this: (323.15 K) 21.7 ± 2.3; (333.15 K) 20.6 ± 2.2; (343.15 K) 19.7 ± 2.1; (353.15 K) 18.8 ± 2; (363.15 K) 18.1 ± 1.9.
